Experimental findings from patent US20030232986A1, “Inhibitors of caspases” (Vertex Pharmaceuticals Incorporated, priority 1998, published 2003) are described below.

A value given as a limit tells only on which side of the number the result lay.

The target of one assay is T1, Caspase-1 (Homo sapiens, UniProt P29466).
T1 sequence (P29466 120-297 limits assumed): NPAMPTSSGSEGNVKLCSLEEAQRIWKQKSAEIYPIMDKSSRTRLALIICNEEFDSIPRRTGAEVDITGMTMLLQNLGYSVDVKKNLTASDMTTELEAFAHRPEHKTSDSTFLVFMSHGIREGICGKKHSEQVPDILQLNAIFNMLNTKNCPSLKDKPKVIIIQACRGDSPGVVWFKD
T1 sequence (P29466 317-404 limits assumed): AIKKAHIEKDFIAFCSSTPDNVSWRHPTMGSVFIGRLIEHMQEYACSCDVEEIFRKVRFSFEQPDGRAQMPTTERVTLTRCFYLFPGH
The assay is described as follows: Caspase-1 enzyme inhibition (Ki). To be noted: substrate Suc-YVAD-pNA 80 μM, 37° C., pH 7.5. It counts as biochemical. The protocol: Ki values for test compounds with the various caspases were obtained by the method of Margolin et al. (J. Biol. Chem., 272 pp. 7223-7228 (1997)). Assays were performed in 10 mM Tris (Sigma Corp, St Louis Mo.) pH 7.5, 1 mM Dithiothreitol (DTT, Research Organic INC, Cleveland, Ohio) and 0.1% CHAPS (Pierce, Rockford Ill.) at 37° C. For caspase-3, a solution of 8% glycerol was added to the assay buffer to improve enzyme stability. A 65 μL aliquot of the assay buffer and 5 μL aliquot of the appropriate dilutions of inhibitor in DMSO where pipetted into a 96 well plate, treated with 10 μL of caspase, then diluted in assay buffer (0.5-40 nM active protein by active site titration). A control containing DMSO but no compound was included for each determination. The plates were then incubated for 15 minutes at 37° C., before addition of the appropriate substrate (20 μL, final concentration 1-4×KM, final assay volume 100 μL) to initiate the reaction. Reaction rates were measured at 37° C. either by following the time dependant increase in absorbance at 405 nm (for the pNA substrates) or in fluorescence (Ex 390, Em 460) (for the AMC substrates). The rates obtained were plotted against inhibitor concentration and the data fit to the Morrison tight-binding equation for competitive inhibitors (Morrison, J. F., Biochem. Biophys. Acta, 185 pp. 269-286 (1969)). The substrates used for the individual assays were as follows:
Caspase-1 Suc-YVAD-pNA (Bachem, King of Prussia, Pa.) (final concentration in the assay 80 μM),

The subject of assay [1] is Human whole blood, IL-1β production. The experiment in a line: Whole blood assay for IL-1β production. Format: cell-based. To be noted: LPS-stimulated whole blood, IL-1β by ELISA. The protocol: The whole blood assay is a simple method for measuring the production of IL-1β (or other cytokines) and the activity of potential inhibitors. The complexity of this assay system, with its full complement of lymphoid and inflammatory cell types, spectrum of plasma proteins and red blood cells is an ideal in vitro representation of human in vivo physiologic conditions.
Set incubator or water bath at 30° C. Aliquot 0.25 ml of blood into 1.5 ml eppendorf tubes. Note: be sure to invert the whole blood sample tubes after every two aliquots. Differences in replicates may result if the cells sediment and are not uniformly suspended. Use of a positive displacement pipette will also minimize differences between replicate aliquots.
Prepare drug dilutions in sterile pyrogen-free saline by serial dilution. A dilution series which brackets the apparent Ki for a test compound determined in an ICE inhibition assay is generally used for the primary compound screen. For extremely hydrophobic compounds, prepare compound dilutions in fresh plasma obtained from the same blood donor or in PBS-containing 5% DMSO to enhance solubility.
Add 25 μl test compound dilution or vehicle control and gently mix the sample. Then add 5.0 μl LPS solution (250 ng/ml stocked prepared fresh: 5.0 ng/ml final concentration LPS), and mix again. Incubate the tubes at […] in a water bath for 16-18 hr with occasional mixing. Alternatively, the tubes can be placed in a rotator set at 4 rpm for the same incubation period. This assay should be set up in duplicate or triplicate with the following controls: negative control—no LPS; positive control—no test inhibitor; vehicle control—the highest concentration of DMSO or compound solvent used in the experiment. Additional saline is added to all control tubes to normalize volumes for both control and experimental whole blood test samples.
After the incubation period, whole blood samples are centrifuged for 10 minutes at ^˜2000 rpm in the microfuge, plasma is transferred to a fresh microfuge tube and centrifuged at 1000×g to pellet residual platelets if necessary. Plasma samples may be stored frozen at −70° C. prior to assay for cytokine levels by ELISA.
R & D Systems (614 McKinley Place N.E. Minneapolis, Minn. 55413) Quantikine kits may be used for measurement of IL-1β and TNF-α. The assays are performed according to the manufacture's directions. IL-1β levels of ^˜1-5 ng/ml in positive controls among a range of individuals may be observed. A 1:200 dilution of plasma for all samples is usually sufficient for experiments for ELISA results to fall on the linear range of the ELISA standard curves. It may be necessary to optimize standard dilutions if you observe differences in the whole blood assay. Nerad, J. L. et al., J. Leukocyte Biol., 52, pp. 687-692 (1992).
For orientation: In an ELISA, binding on a coated surface is turned into a signal by an enzyme label.

As a reminder, the Ki is the equilibrium dissociation constant of an inhibitor or competing ligand from its target. Read a high Ki as weaker binding. As a reminder, the IC50 is the concentration that gives 50% inhibition. A lower IC50 goes with greater potency. `Nc1ccc(C(=O)NCC(=O)N2CC(F)(F)C[C@H]2C(=O)N[C@H](C=O)CC(=O)O)cc1Cl` [Example G2, 3-({1-[(4-Amino-3-chloro-benzoylamino)-acetyl]-4,4-difluoro-pyrrolidine-2-carbonyl}-amino)-4-oxo-butyric acid]: at Caspase-1, the Ki lay within 0.01 to 1 µM. The compound also showed an IC50 in assay [1] of 2.5 to 7.5 µM.

On Caspase-1, `CC(NC(=O)c1ccc(N)c(Cl)c1)C(=O)N1CC(F)CC1C(=O)NC(C=O)CC(=O)O` (stereo not drawn) [Example 123a, 3-({1-[2-(4-Amino-3-chloro-benzoylamino)-propionyl]-4-fluoro-pyrrolidine-2-carbonyl}-amino)-4-oxo-butyric acid] showed a Ki of 0.01 to 1 µM. In addition, the IC50 in assay [1] was less than 2.5 µM.

`COc1c(C)cc(C(=O)N[C@@H](C)C(=O)N2CC(F)(F)C[C@H]2C(=O)N[C@H](C=O)CC(=O)O)cc1C` [Example 27i] showed a Ki at Caspase-1 of 0.01 to 1 µM. This compound also came in with a 50% inhibitory concentration (IC50) in assay [1] of 2.5 to 7.5 µM.

As for `C[C@H](NC(=O)c1cccc(C#N)c1)C(=O)N1CCC[C@H]1C(=O)N[C@H](C=O)CC(=O)O` [Example 7ad], on Caspase-1, the Ki was 0.01 to 1 µM. In addition, the IC50 in assay [1] was in the range of 2.5 to 7.5 µM.

As to `CC(=O)Nc1ccc(C(=O)NC(C)C(=O)N2CC(F)(F)CC2C(=O)NC(C=O)CC(=O)O)cc1Cl` (stereo not drawn) [Example 123b, 3-({1-[2-(4-Acetylamino-3-chloro-benzoylamino)-propionyl]-4,4-difluoro-pyrrolidine-2-carbonyl}-amino)-4-oxo-butyric acid], the inhibitory constant (Ki) on Caspase-1 lay within 0.01 to 1 µM. The compound further gave an IC50 in assay [1] of 2.5 to 7.5 µM.

As for `C[C@H](NC(=O)c1ccc(Cl)c(Cl)c1)C(=O)N1CCC[C@H]1C(=O)N[C@H](C=O)CC(=O)O` [Example 7aj], the Ki at Caspase-1 is less than 0.01 µM. For the same compound, in assay [1], the IC50 was greater than 7.5 µM.

In the case of `CC(C)[C@H](NC(=O)c1ccc(N)c(Cl)c1)C(=O)N1CC(F)(F)C[C@H]1C(=O)N[C@H](C=O)CC(=O)O` [Example 27d], the Ki at Caspase-1 was less than 0.01 µM. In assay [1], this compound came in with an IC50 of less than 2.5 µM.

`C[C@H](NC(=O)c1ccc2[nH]cnc2c1)C(=O)N1CC(F)(F)C[C@H]1C(=O)N[C@H](C=O)CC(=O)O` [Example 27n] showed a Ki on Caspase-1 of 0.01 to 1 µM. In assay [1], the 50% inhibitory concentration (IC50) was less than 2.5 µM.

The compound `C[C@H](NC(=O)c1cccc(C(F)(F)F)c1)C(=O)N1CCC[C@H]1C(=O)N[C@H](C=O)CC(=O)O` [Example 7am] showed a Ki at Caspase-1 of less than 0.01 µM. The same compound displayed an IC50 in assay [1] of 2.5 to 7.5 µM.

Compound `C[C@H](NC(=O)c1nccc2ccccc12)C(=O)N1CC(F)(F)C[C@H]1C(=O)N[C@H](C=O)CC(=O)O` [Example 27l] gave a Ki on Caspase-1 of 0.01 to 1 µM. In assay [1], the concentration for half-maximal inhibition (IC50) is 2.5 to 7.5 µM.

For `CC[C@H](NC(=O)c1ccc(N)c(Cl)c1)C(=O)N1CC(F)(F)C[C@H]1C(=O)N[C@H](C=O)CC(=O)O` [Example 27e], at Caspase-1, the inhibitory constant (Ki) was 0.01 to 1 µM. In assay [1], this compound showed a 50% inhibitory concentration (IC50) of less than 2.5 µM.

On to `C[C@H](NC(=O)c1c(F)c(F)c(N)c(F)c1F)C(=O)N1CCC[C@H]1C(=O)N[C@H](C=O)CC(=O)O` [Example 122p, 3-({1-[2-(4-Amino-2,3,5,6-tetrafluoro-benzoylamino)-propionyl]-pyrrolidine-2-carbonyl}-amino)-4-oxo-butyric acid], for which the Ki on Caspase-1 is less than 0.01 µM. This compound also gave an IC50 in assay [1] of 2.5 to 7.5 µM.

At Caspase-1, `C[C@H](NC(=O)c1ccc(N(C)C)c(Cl)c1)C(=O)N1CCC[C@H]1C(=O)N[C@H](C=O)CC(=O)O` [Example 122m, 3-({1-[2-(3-Chloro-4-dimethylamino-benzoylamino)-propionyl]-pyrrolidine-2-carbonyl}-amino)-4-oxo-butyric acid] had a Ki of 0.01 to 1 µM. This compound also showed an IC50 in assay [1] of 2.5 to 7.5 µM.

Consider `C[C@H](NC(=O)c1cc(Cl)cc(Cl)c1)C(=O)N1CCC[C@H]1C(=O)N[C@H](C=O)CC(=O)O` [Example 7ai], for which the inhibition constant (Ki) on Caspase-1 was less than 0.01 µM. This compound also gave a 50% inhibitory concentration (IC50) in assay [1] of 2.5 to 7.5 µM.

In the case of `C[C@H](NC(=O)c1ccc(F)c(Cl)c1)C(=O)N1CCC[C@H]1C(=O)N[C@H](C=O)CC(=O)O` [Example 7ak], at Caspase-1, the inhibitory constant (Ki) was less than 0.01 µM. Besides, the IC50 in assay [1] lay within 2.5 to 7.5 µM.

As to `C[C@H](NC(=O)c1cccc(C(F)(F)F)c1)C(=O)N1CC(F)(F)C[C@H]1C(=O)N[C@H](C=O)CC(=O)O` [Example 27m], the Ki at Caspase-1 was 0.01 to 1 µM. The IC50 in assay [1] lay in the range of 2.5 to 7.5 µM.

On Caspase-1, `C[C@H](NC(=O)c1ccc2ncccc2c1)C(=O)N1CCC[C@H]1C(=O)N[C@H](C=O)CC(=O)O` [Example 122q, 4-Oxo-3-[(1-{2-[(quinoline-6-carbonyl)-amino]-propionyl}-pyrrolidine-2-carbonyl)-amino]-butyric acid] gave a Ki of 0.01 to 1 µM. In assay [1], this compound displayed a 50% inhibitory concentration (IC50) of 2.5 to 7.5 µM.

Compound `C[C@H](NC(=O)c1ccc(NC(=O)C(C)(C)C)c(Cl)c1)C(=O)N1CCC[C@H]1C(=O)N[C@H](C=O)CC(=O)O` [Example 122s, 3-[(1-{2-[3-Chloro-4-(2,2-dimethyl-propionylamino)-benzoylamino]-propionyl}-pyrrolidine-2-carbonyl)-amino]-4-oxo-butyric acid] gave an inhibition constant Ki at Caspase-1 of 0.01 to 1 µM. Further, the IC50 in assay [1] lay in the range of 2.5 to 7.5 µM.

With `C[C@H](NC(=O)c1cc(Cl)c(O)c(Cl)c1)C(=O)N1CC(F)(F)C[C@H]1C(=O)N[C@H](C=O)CC(=O)O` [Example 27g], the Ki at Caspase-1 was less than 0.01 µM. This compound gave a half-inhibitory concentration (IC50) in assay [1] of 2.5 to 7.5 µM.

In turn, `Cc1ccc(Cl)cc1C(=O)N[C@@H](C)C(=O)N1CCC[C@H]1C(=O)N[C@H](C=O)CC(=O)O` [Example 7an] had an inhibitory constant (Ki) on Caspase-1 of less than 0.01 µM. In addition, the IC50 in assay [1] fell in the range of 2.5 to 7.5 µM.

On to `C[C@H](NC(=O)C(=O)c1ccccc1)C(=O)N1CCC[C@H]1C(=O)N[C@H](C=O)CC(=O)O` [Example 7ap], for which the Ki on Caspase-1 was in the range of 0.01 to 1 µM. In assay [1], this compound showed an IC50 greater than 7.5 µM.

As for `COc1ccc(C(=O)N[C@@H](C)C(=O)N[C@@H](C)C(=O)N[C@H](C=O)CC(=O)O)cc1` [Example 29s], on Caspase-1, the inhibitory constant (Ki) was in the range of 0.01 to 1 µM. Also, the concentration for half-maximal inhibition (IC50) in assay [1] is less than 2.5 µM.

Turning to `COc1c(Cl)cc(C(=O)N[C@@H](C)C(=O)N2CC(F)(F)C[C@H]2C(=O)N[C@H](C=O)CC(=O)O)cc1Cl` [Example 27h], the inhibition constant (Ki) on Caspase-1 lay in the range of 0.01 to 1 µM. In assay [1], this compound gave an IC50 of 2.5 to 7.5 µM.

As to `Cc1c(Cl)cccc1C(=O)N[C@@H](C)C(=O)N1CCC[C@H]1C(=O)N[C@H](C=O)CC(=O)O` [Example 7ao], the Ki at Caspase-1 fell in the range of 0.01 to 1 µM. The IC50 in assay [1] is 2.5 to 7.5 µM.

In the case of `C[C@H](NC(=O)c1cccc2ccccc12)C(=O)N1CC(F)(F)C[C@H]1C(=O)N[C@H](C=O)CC(=O)O` [Example 27f], the inhibitory constant (Ki) on Caspase-1 lay within 0.01 to 1 µM. The compound further registered a concentration for half-maximal inhibition (IC50) in assay [1] of 2.5 to 7.5 µM.

As for `C[C@H](NC(=O)c1cccc(Cl)c1)C(=O)N1CCC[C@H]1C(=O)N[C@H](C=O)CC(=O)O` [Example 7ah], on Caspase-1, the Ki was less than 0.01 µM. Also, the IC50 in assay [1] was 2.5 to 7.5 µM.

At Caspase-1, `CNc1ccc(C(=O)N[C@@H](C)C(=O)N2CCC[C@H]2C(=O)N[C@H](C=O)CC(=O)O)cc1Cl` [Example 7aa] displayed an inhibition constant Ki of less than 0.01 µM. Also, in assay [1], the concentration for half-maximal inhibition (IC50) lay within 2.5 to 7.5 µM.
